# Data reported in PubChem BioAssay (NCI).
#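 Tested at 5 concentrations; 48 h exposure; 96-well plates; endpoints linearly interpolated, else capped at highest concentration. Abbreviation: GI50, concentration required for 50% inhibition of growth. TGI denotes the concentration required for complete inhibition of growth.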
# Tests used:
# Test in all cases: growth of human tumour cells (NCI), 48 h
# NCI-H460 lung = tested on: NCI-H460 lung
# NCI-H522 lung = tested on: NCI-H522 lung
# NCI/ADR-RES ovarian = tested on: NCI/ADR-RES ovarian
# OVCAR-3 ovarian = tested on: OVCAR-3 ovarian
# OVCAR-4 ovarian = tested on: OVCAR-4 ovarian
# OVCAR-5 ovarian = tested on: OVCAR-5 ovarian
# OVCAR-8 ovarian = tested on: OVCAR-8 ovarian
# PC-3 prostate = tested on: PC-3 prostate
# RPMI-8226 leukemia = tested on: RPMI-8226 leukemia
# RXF 393 renal = tested on: RXF 393 renal
# SF-268 CNS = tested on: SF-268 CNS
# SF-295 CNS = tested on: SF-295 CNS
# SF-539 CNS = tested on: SF-539 CNS
# SK-MEL-2 melanoma = tested on: SK-MEL-2 melanoma
# SK-MEL-28 melanoma = tested on: SK-MEL-28 melanoma
# SK-MEL-5 melanoma = tested on: SK-MEL-5 melanoma
# SK-OV-3 ovarian = tested on: SK-OV-3 ovarian
# SN12C renal = tested on: SN12C renal
# SNB-19 CNS = tested on: SNB-19 CNS
# SNB-75 CNS = tested on: SNB-75 CNS
# SR leukemia = tested on: SR leukemia
# SW-620 colon = tested on: SW-620 colon
# T-47D breast = tested on: T-47D breast
# TK-10 renal = tested on: TK-10 renal
# U251 CNS = tested on: U251 CNS
# UACC-257 melanoma = tested on: UACC-257 melanoma
# UACC-62 melanoma = tested on: UACC-62 melanoma
# UO-31 renal = tested on: UO-31 renal
structure (smiles),measurement,setting,value
CCCCCCCCCCCCCCCC(=O)NS(=O)(=O)OC[C@H]1O[C@@H](n2cnc3c(N)ncnc32)[C@H](O)[C@@H]1O,TGI,NCI-H460 lung,8.6 µM
same,GI50,NCI-H522 lung,0.0479 µM
same,TGI,NCI-H522 lung,0.427 µM
same,GI50,NCI/ADR-RES ovarian,0.0917 µM
same,TGI,NCI/ADR-RES ovarian,3.55 µM
same,TGI,OVCAR-3 ovarian,0.124 µM
same,GI50,OVCAR-4 ovarian,0.0392 µM
same,TGI,OVCAR-4 ovarian,0.255 µM
same,GI50,OVCAR-5 ovarian,< 0.0158 µM
same,TGI,OVCAR-5 ovarian,< 0.0339 µM
same,GI50,OVCAR-8 ovarian,0.3 µM
same,TGI,OVCAR-8 ovarian,1.28 µM
same,TGI,PC-3 prostate,< 0.0166 µM
same,GI50,RPMI-8226 leukemia,3.44 µM
same,TGI,RPMI-8226 leukemia,14.2 µM
same,GI50,RXF 393 renal,< 0.0161 µM
same,TGI,RXF 393 renal,< 0.0284 µM
same,GI50,SF-268 CNS,< 0.0481 µM
same,TGI,SF-268 CNS,1.28 µM
same,GI50,SF-295 CNS,1.01 µM
same,TGI,SF-295 CNS,2.31 µM
same,GI50,SF-539 CNS,0.118 µM
same,TGI,SF-539 CNS,0.359 µM
same,GI50,SK-MEL-2 melanoma,0.588 µM
same,TGI,SK-MEL-2 melanoma,2.83 µM
same,TGI,SK-MEL-28 melanoma,1.66 µM
same,GI50,SK-MEL-5 melanoma,0.234 µM
same,TGI,SK-MEL-5 melanoma,0.571 µM
same,GI50,SK-OV-3 ovarian,0.278 µM
same,TGI,SK-OV-3 ovarian,1.15 µM
same,GI50,SN12C renal,0.262 µM
same,TGI,SN12C renal,1.45 µM
same,GI50,SNB-19 CNS,0.0191 µM
same,TGI,SNB-19 CNS,0.157 µM
same,GI50,SNB-75 CNS,< 0.0471 µM
same,TGI,SNB-75 CNS,1.29 µM
same,GI50,SR leukemia,< 0.021 µM
same,TGI,SR leukemia,4.38 µM
same,GI50,SW-620 colon,0.0412 µM
same,TGI,SW-620 colon,10.1 µM
same,GI50,T-47D breast,0.275 µM
same,TGI,T-47D breast,1.34 µM
same,GI50,TK-10 renal,< 0.0163 µM
same,TGI,TK-10 renal,< 0.0259 µM
same,GI50,U251 CNS,< 0.0162 µM
same,TGI,U251 CNS,< 0.0277 µM
same,GI50,UACC-257 melanoma,0.333 µM
same,TGI,UACC-257 melanoma,1.47 µM
same,GI50,UACC-62 melanoma,0.215 µM
same,TGI,UACC-62 melanoma,0.599 µM
same,GI50,UO-31 renal,0.339 µM
same,TGI,UO-31 renal,1.33 µM
